In brackets after ≈: the same amount, converted by molar mass. Activity calls are given as the source filed them. The rule behind the calls is not given here.
Columns and labels:
Type in all cases: functional
Pseudomonas aeruginosa [1] = assay: Antibacterial activity against Pseudomonas aeruginosa ATCC 27853 assessed as growth inhibition after 18 hrs by monochromator plate assay
Staphylococcus aureus [2] = assay: Antibacterial activity against methicillin-resistant Staphylococcus aureus ATCC 43300 assessed as growth inhibition at 32 ug/ml after 18 hrs by monochromator plate assay relative to control
Acinetobacter baumannii [3] = assay: Antibacterial activity against Acinetobacter baumannii ATCC 19606 assessed as growth inhibition at 32 ug/ml after 18 hrs by monochromator plate assay relative to control; conditions: for inhibition: dose 32.0 µg/ml
Cryptococcus neoformans [4] = assay: Antifungal activity against Cryptococcus neoformans var. grubii ATCC 208821 assessed as growth inhibition at 32 ug/ml after 36 hrs by monochromator plate assay relative to control; conditions: dose 32.0 µg/ml
Pseudomonas aeruginosa [5] = assay: Antibacterial activity against Pseudomonas aeruginosa ATCC 27853 assessed as growth inhibition at 32 ug/ml after 18 hrs by monochromator plate assay relative to control
Klebsiella pneumoniae [6] = assay: Antibacterial activity against Klebsiella pneumoniae ATCC 700603 assessed as growth inhibition at 32 ug/ml after 18 hrs by microplate reader assay relative to control; conditions: for inhibition: dose 32.0 µg/ml
Escherichia coli [7] = assay: Antibacterial activity against Escherichia coli ATCC 25922 assessed as growth inhibition after 18 hrs by monochromator plate assay
Candida albicans [8] = assay: Antifungal activity against Candida albicans ATCC 90028 assessed as growth inhibition at 32 ug/ml after 36 hrs by monochromator plate assay relative to control
Escherichia coli [9] = assay: Antibacterial activity against Escherichia coli ATCC 25922 assessed as growth inhibition at 32 ug/ml after 18 hrs by monochromator plate assay relative to control; conditions: for inhibition: dose 32.0 µg/ml
Staphylococcus aureus [10] = assay: Antibacterial activity against methicillin-resistant Staphylococcus aureus ATCC 43300 assessed as growth inhibition after 18 hrs by monochromator plate assay
Acinetobacter baumannii [11] = assay: Antibacterial activity against Acinetobacter baumannii ATCC 19606 assessed as growth inhibition after 18 hrs by monochromator plate assay
Candida albicans [12] = assay: Antifungal activity against Candida albicans ATCC 90028 assessed as growth inhibition after 36 hrs by monochromator plate assay
Cryptococcus neoformans [13] = assay: Antifungal activity against Cryptococcus neoformans var. grubii ATCC 208821) assessed as growth inhibition after 36 hrs by monochromator plate assay relative to control
Klebsiella pneumoniae [14] = assay: Antibacterial activity against Klebsiella pneumoniae ATCC 700603 assessed as growth inhibition after 18 hrs by monochromator plate assay

| SMILES | MIC (Pseudomonas aeruginosa [1]) | inhibition at 32 µg/mL (Staphylococcus aureus [2]) [%] | inhibition at 32 µg/mL (Acinetobacter baumannii [3]) [%] | inhibition (Cryptococcus neoformans [4]) | inhibition at 32 µg/mL (Pseudomonas aeruginosa [5]) [%] | inhibition (Klebsiella pneumoniae [6]) | MIC (Escherichia coli [7]) | inhibition at 32 µg/mL (Candida albicans [8]) [%] | inhibition (Escherichia coli [9]) | MIC (Staphylococcus aureus [10]) [µg/mL] | MIC (Acinetobacter baumannii [11]) | MIC (Candida albicans [12]) [µg/mL] | MIC (Cryptococcus neoformans [13]) | MIC (Klebsiella pneumoniae [14]) | inhibition (Candida albicans [8]; dose 32.0 µg/ml) | inhibition (Pseudomonas aeruginosa [5]; dose 32.0 µg/ml) | inhibition at 32 µg/mL (Klebsiella pneumoniae [6]) [%] | inhibition at 32 µg/mL (Escherichia coli [9]) [%] | inhibition (Staphylococcus aureus [2]; dose 32.0 µg/ml) | inhibition (Acinetobacter baumannii [3]) |
| --- | --- | --- | --- | --- | --- | --- | --- | --- | --- | --- | --- | --- | --- | --- | --- | --- | --- | --- | --- | --- |
| CCOC(=O)c1cc(-c2sc(-c3ccc(-c4ccccc4)cc3)nc2C)[nH]n1 | > 32 µg/mL | 13.6 | 2.8 | inactive | 1.5 | inactive | inactive | 5.6 | inactive | > 32 | > 32 µg/mL | > 32 | inactive | inactive |  |  |  |  |  |  |
| OC(Cn1cncn1)(Cn1cncn1)c1ccc(F)cc1F [FLUCONAZOLE] |  |  |  | inactive |  |  |  |  |  |  |  | 0.125 (≈ 0.408 µM) | 8 µg/mL (≈ 26.1 µM) |  | inactive |  |  |  |  |  |
| Cc1nc(-c2ccc(I)cc2)sc1-c1cc(C(=O)O)n[nH]1 | inactive | 31.8 | 6.6 | inactive |  |  | > 32 µg/mL | 25.5 |  | > 32 | > 32 µg/mL | > 32 | inactive | > 32 µg/mL |  | inactive | 12 | 27.5 |  |  |
| CN[C@H](CC(C)C)C(=O)N[C@H]1C(=O)N[C@@H](CC(N)=O)C(=O)N[C@H]2C(=O)N[C@H]3C(=O)N[C@H](C(=O)N[C@H](C(=O)O)c4cc(O)cc(O)c4-c4cc3ccc4O)[C@H](O)c3ccc(c(Cl)c3)Oc3cc2cc(c3O[C@@H]2O[C@H](CO)[C@@H](O)[C@H](O)[C@H]2O[C@H]2C[C@](C)(N)[C@H](O)[C@H](C)O2)Oc2ccc(cc2Cl)[C@H]1O |  |  |  |  |  |  |  |  |  |  |  |  |  |  |  |  |  |  | inactive |  |
| Cc1nc(-c2ccc(-c3ccccc3)cc2)sc1-c1cc(C(=O)Nc2ccc3c(c2)OCO3)n[nH]1 | > 32 µg/mL | 3.2 |  | inactive | 1.3 |  | inactive | 5 | inactive | > 32 | inactive | > 32 | inactive | > 32 µg/mL |  |  | 7.5 |  |  | inactive |
| Cc1nc(-c2ccc(-c3cccc4ccccc34)cc2)sc1-c1cc(C(=O)NC2CCCCC2)n[nH]1 | > 32 µg/mL | 19.4 |  | inactive | 6.1 | inactive | inactive | 40.8 | inactive | > 32 | inactive | > 32 | inactive | inactive |  |  |  |  |  | inactive |
| Cc1cccc(-c2ccc(-c3nc(C)c(-c4cc(C(=O)NC5CCCCC5)n[nH]4)s3)cc2)c1C | > 32 µg/mL | 7.2 |  | inactive | 7.1 | inactive | inactive | 6.1 | inactive | 32 (≈ 68 µM) | inactive | > 32 | inactive | inactive |  |  |  |  |  | inactive |
| Cc1nc(-c2ccc(-c3ccccc3)cc2)sc1-c1cc(C(=O)Nc2ccc(OC(F)F)cc2)n[nH]1 | > 32 µg/mL | 3.6 |  | inactive | 7.1 |  | inactive | 4.7 | inactive | > 32 | inactive | > 32 | inactive | > 32 µg/mL |  |  | 5 |  |  | inactive |
| Cc1nc(-c2ccc(-c3ccccc3)cc2)sc1-c1cc(C(=O)Nc2ccc(C(C)(C)C)cc2)n[nH]1 | > 32 µg/mL | 13.2 | 3 | inactive | 2.2 |  | inactive | 5.2 | inactive | > 32 | > 32 µg/mL | > 32 | inactive | > 32 µg/mL |  |  | 5.2 |  |  |  |

Reference: ChEMBL document CHEMBL4732221, “Design, synthesis and bioactivity evaluation of novel pyrazole linked phenylthiazole derivatives in context of antibacterial activity” (Bioorg Med Chem Lett, 2021)
